According to patent US6355467B1, “Saccharification enzymes from hyperthermophilic bacteria and processes for their production” (Johns Hopkins University, priority 1989, dated 2002):

Columns and labels:
[1] = test system: P. furiosus α-glucosidase; assay: Substrate specificity (kinetic assays) of purified α-glucosidase; assay type: biochemical, Pyrococcus furiosus; details: substrate hydrolysed by purified α-glucosidase
Experimental: (§1) α-Glucosidase was assayed using p-nitrophenyl-α-D-glucopyranoside (PNP-α-G) as substrate, and β-glucosidase was assayed using p-nitrophenyl-β-D-glucopyranoside (PNP-β-G) as substrate. Assays were conducted as follows; for each assay, 1.0 ml of substrate consisting of 10 mM PNP-α-G or PNP-β-G in 0.1 M sodium phosphate buffer, pH 5.5, was pipetted into a quartz cuvette. The cuvettes were inserted into a heated cell holder and preincubated for 5 to 10 minutes at the assay temperature of 98° C. Following the preincubation, enzyme sample (10 μl) was added to the cuvette and the evolution of p-nitrophenol (PNP) was followed by monitoring A405.
Substrate specificity. The substrate specificity of the purified α-glucosidase was tested with a variety of natural and synthetic glucosides.

[2] = test system: P. furiosus; assay: Effect of adding substrate to the culture medium on saccharification enzyme production; assay type: cell-based, Pyrococcus furiosus; details: substrate added to culture
Experimental: Growth of cells. P. furiosus was grown in artificial sea water supplemented with 10 g/l elemental sulfur and carbohydrate substrate, typically 3 g/l of soluble starch, unless otherwise specified, as described in Example 1. For the present studies, typically one liter bottles were inoculated with 20 ml of a late log phase culture and incubated for 12 hours at 98° C. in a silicon oil bath. Sulfur was removed by filtration and the cell pellet was recovered by centrifugation at about 12,000×g for 30 minutes. Intracellular enzyme preparation. […] The sonicated cells were centrifuged at about 18,000×g for 30 minutes to remove remaining sulfur and cell debris. […] Extracellular enzyme preparation. For extracellular enzyme activities, supernatants from the original centrifugation (i.e., the culture media) were concentrated from 1 liter to about 5 ml using, in succession, a Millipore […] ultrafiltration unit with a 10,000 molecular-weight-cutoff membrane, and a Novacell stirred cell with a 10,000 molecular-weight-cutoff membrane. […] EPPS was used instead of phosphate to prevent precipitation of salts from the media. […] The amount of reducing sugar released was determined using the dinitrosalicylic acid method (Barnfeld, P., 1955, Methods in Enzymology 1:149-50). One unit of enzyme activity was defined as the amount of enzyme that released one nmol of reducing sugar (as a glucose standard) per minute under the assay conditions used. α-Glucosidase was assayed using p-nitrophenyl-α-D-glucopyranoside (PNP-α-G) as substrate, and β-glucosidase was assayed using p-nitrophenyl-β-D-glucopyranoside (PNP-β-G) as substrate. Assays were conducted as follows; for each assay, 1.0 ml of substrate consisting of 10 mM PNP-α-G or PNP-β-G in 0.1 M sodium phosphate buffer, pH 5.5, was pipetted into a quartz cuvette. […] Following the preincubation, enzyme sample (10 μl) was added to the cuvette and the evolution of p-nitrophenol (PNP) was followed by monitoring A405. One unit of glucosidase activity was that amount of enzyme releasing one μmol PNP per minute under the standard conditions, from the appropriate α or β substrate.

[3] = test system: purified P. furiosus α-glucosidase; assay: Effects of denaturing agents and inhibitors on purified α-glucosidase; assay type: biochemical, Pyrococcus furiosus; details: standard assay at 98° C.
Experimental: as §1, with “A405. One unit of glucosidase activity was that amount of enzyme releasing one μmol PNP per minute under the standard conditions, from the appropriate α or β substrate.” for “A405.”
Resistance to denaturing agents. […] Several denaturing agents were added to p-nitrophenyl-α-D-glucopyranoside, both in the presence and absence of the α-glucosidase, to control for possible degradation of the substrate in the presence of the agents.

Compound: O=[N+]([O-])c1ccc(O[C@@H]2O[C@H](CO)[C@H](O)[C@H](O)[C@H]2O)cc1 [p-Nitrophenyl-α-D-glucopyranoside]
- Km [1]: 260 µM
- Vm [1]: 287 U/mg

Compound: glycogen
- best yield of amylase per liter of culture ([2]; enzyme in medium): 60,100 units
- best yield of α-glucosidase per liter of culture ([2]; intracellular): 9584

Compound: O=C(O)CN(CCOCCOCCN(CC(=O)O)CC(=O)O)CC(=O)O [EGTA, [Ethylenebis(oxyethylenenitrilo)]tetraacetic acid]
- Activity Remaining ([3]; agent at 20 μM): 85%

Compound: CCCCCCCCCCCCOS(=O)(=O)[O-].[Na+] [Sodium dodecyl sulphate]
- Activity Remaining ([3]; agent at 1% (w/v), 30 minutes): 22%

Compound: O=C(O)CN(CCN(CC(=O)O)CC(=O)O)CC(=O)O [EDTA, Ethylenediaminetetraacetic acid]
- Activity Remaining ([3]; agent at 20 mM): 50%

Compound: CO[C@H]1O[C@H](CO)[C@@H](O)[C@H](O)[C@H]1O [Methyl-α-D-glucopyranoside]
- Km [1]: 770 µM
- Vm [1]: 186 U/mg

Compound: O[C@H](CS)[C@H](O)CS (racemic) [Dithiothreitol]
- Activity Remaining ([3]; agent at 100 mM): 83%

Compound: Cl.N=C(N)N [Guanidinium hydrochloride]
- Activity Remaining ([3]; agent at 1.0 M): <1%

Compound: OC[C@H]1O[C@H](OC[C@H]2OC(O)[C@H](O)[C@@H](O)[C@@H]2O)[C@H](O)[C@@H](O)[C@@H]1O (stereo partly drawn) [Isomaltose]
- Km [1]: 8200 µM
- Vm [1]: 951 U/mg

Compound: O=[N+]([O-])c1ccc(O[C@@H]2O[C@H](CO)[C@@H](O)[C@H](O)[C@H]2O)cc1 [p-Nitrophenyl-β-D-glucopyranoside]
- activity relative to p-Nitrophenyl-α-D-glucopyranoside (symbols) [1]: t (Only a trace of activity could be detected (i.e., ˜3% of the level found with p-Nitrophenyl-α-D-glucopyranoside).)

Compound: Starch
- best yield of β-glucosidase per liter of culture ([2]; intracellular): 220 units
- activity relative to p-Nitrophenyl-α-D-glucopyranoside (symbols) [1]: nd (No activity detected (<3% of p-Nitrophenyl-α-D-glucopyranoside))

Compound: NC(N)=O [Urea]
- Activity Remaining ([3]; agent at 1.0 M): 84%

Compound: OC[C@H]1O[C@H](O[C@H]2[C@H](O)[C@@H](O)C(O)O[C@@H]2CO)[C@H](O)[C@@H](O)[C@@H]1O (mixture of isomers) [Maltose]
- best yield of pullulanase per liter of culture ([2]; intracellular): 8020 units
- Km [1]: 5200 µM
- Vm [1]: 1760 U/mg

Compound: OC[C@H]1O[C@@](CO)(O[C@H]2O[C@H](CO)[C@@H](O)[C@H](O)[C@H]2O)[C@@H](O)[C@@H]1O [Sucrose]
- activity relative to p-Nitrophenyl-α-D-glucopyranoside (symbols) [1]: nd (No activity detected (<3% of p-Nitrophenyl-α-D-glucopyranoside))
